The source of these data is ChEMBL document CHEMBL1201862, “PubChem BioAssay data set” (2004).

Among the test systems are SN12C; U-251; SK-MEL-28; M14; COLO 205; UACC-257; KM12; SK-MEL-2; MOLT-4; SF-539; ACHN; NCI-H226; A549; HOP-92; RPMI-8226; Malme-3M; SF-268; OVCAR-5; OVCAR-8.
Assay in all cases: NCI tumour cell line growth inhibition, 48 h

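Compound exposure: 48 hours, 5 concentrations, 96-well plates. GI50 is the concentration that inhibits growth by half.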 Activity calls are given as the source filed them. Cut-off read from the data, not from the text of the source: active = GI50 up to about 1.1 µM and inactive = higher. Where a SMILES comes first, the peptide text is derived from it. Bounds are passed on as bounds.

As to `CC(=O)NC(CS)C(=O)NC(CO)C(=O)NC(CO)C(=O)NC(Cc1c[nH]c2ccccc12)C(=O)N1CCCC1C(=O)NC(CO)C(=O)NC(Cc1c[nH]c2ccccc12)C(=O)NC(Cc1c[nH]cn1)C(=O)NC(CO)C(=O)NC(Cc1c[nH]c2ccccc12)C(=O)NCC(=O)NCC(=O)NC(CC(=O)O)C(=O)NC(CCC(N)=O)C(=O)NC(CCCCN)C(=O)NC(Cc1ccccc1)C(=O)NC(CCCNC(=N)N)C(=O)NC(CCCCN)C(N)=O` (stereo not given) (Ac-CSSWPSWHSWGGDQKFRK-NH2; configuration not given here), the GI50 in the assay with SN12C, in the assay with U-251, in the assay with SK-MEL-28, in the assay with M14, with COLO 205 and in the assay with UACC-257 was > 25 µM (inactive) each time. Moreover, the GI50 with KM12, in the assay with SK-MEL-2, in the assay with MOLT-4, with SF-539, in the assay on ACHN and in the assay with NCI-H226 was > 25 µM (inactive) each time. Besides, the GI50 in the assay on A549, in the assay with HOP-92, in the assay on RPMI-8226, with Malme-3M, with SF-268 and in the assay on OVCAR-5 was > 25 µM (inactive) in each case. Further, the GI50 in the assay on OVCAR-8 was > 25 µM (inactive).
For `CC(C)c1ccc(/C=C2\CSCC3=C2N=C(S)NC3c2ccc(C(C)C)cc2)cc1` (stereo not given), the GI50 with SN12C was > 100 µM (inactive); in the assay on U-251, 85.1 µM (inactive); in the assay on SK-MEL-28 it was > 100 µM (inactive); in the assay on M14, > 100 µM (inactive); with COLO 205 it was > 100 µM (inactive); in the assay with UACC-257, 34.6 µM (inactive). Also, the GI50 is > 100 µM (inactive) in the assay with KM12; > 100 µM (inactive) in the assay on SK-MEL-2; 29.6 µM (inactive) in the assay on MOLT-4; > 100 µM (inactive) in the assay on SF-539; > 100 µM (inactive) in the assay with ACHN; > 100 µM (inactive) in the assay with NCI-H226. The GI50 was 80.9 µM (inactive) in the assay on A549; 68.5 µM (inactive) in the assay on HOP-92; 67.6 µM (inactive) in the assay with RPMI-8226; 36.1 µM (inactive) with Malme-3M; > 100 µM (inactive) in the assay on SF-268; > 100 µM (inactive) in the assay with OVCAR-5. Moreover, the GI50 in the assay with OVCAR-8 is > 100 µM (inactive).
With `Cc1c(Br)c(Br)c(C)[s+]1[O-]`, the GI50 in the assay with SN12C is 11.8 µM (inactive); in the assay with U-251 it was 11.6 µM (inactive); in the assay on SK-MEL-28 it was 17.6 µM (inactive); in the assay with M14, 13.4 µM (inactive); in the assay on COLO 205 it was 2.57 µM (inactive); in the assay with UACC-257 it was 12.2 µM (inactive). Moreover, the GI50 was 13.8 µM (inactive) with KM12; 13.3 µM (inactive) with SK-MEL-2; 3.48 µM (inactive) in the assay with MOLT-4; 5.38 µM (inactive) with SF-539; 19 µM (inactive) in the assay on ACHN; 28.4 µM (inactive) with NCI-H226. The GI50 was 15.6 µM (inactive) with A549; 45.9 µM (inactive) in the assay with HOP-92; 3.8 µM (inactive) in the assay with RPMI-8226; 17.3 µM (inactive) with Malme-3M; 25.2 µM (inactive) with SF-268; 18 µM (inactive) with OVCAR-5. Moreover, the GI50 in the assay with OVCAR-8 is 21.6 µM (inactive).
On to `O=C(NCCc1ccccc1)c1cc(/C=C/c2cc(O)ccc2O)ccc1O`, for which the GI50 in the assay with SN12C was 4.92 µM (inactive); in the assay on U-251, 2.36 µM (inactive); in the assay with SK-MEL-28 it was 3.08 µM (inactive); with M14 it was 5.56 µM (inactive); in the assay with COLO 205 it was 5.61 µM (inactive); in the assay with UACC-257, 2.64 µM (inactive). Further, the GI50 with KM12 was 6.05 µM (inactive); in the assay on SK-MEL-2, 3.57 µM (inactive); in the assay with MOLT-4 it was 2.52 µM (inactive); in the assay on SF-539, 2.38 µM (inactive); in the assay on ACHN, 2.2 µM (inactive); in the assay on NCI-H226, 9.66 µM (inactive). Further, the GI50 with A549 is 10.3 µM (inactive); with HOP-92, 1.87 µM (inactive); in the assay with RPMI-8226, 1.82 µM (inactive); in the assay with Malme-3M, 2.22 µM (inactive); in the assay on SF-268 it was 3.19 µM (inactive); in the assay on OVCAR-5 it was 8.69 µM (inactive). In the assay with OVCAR-8, the GI50 was 3.85 µM (inactive).
Turning to `COc1cccc(/N=C/c2cc(OC)c(OC)c(OC)c2)c1`, the GI50 in the assay with SN12C is > 100 µM (inactive); with U-251 it was > 100 µM (inactive); with SK-MEL-28, > 75.7 µM (inactive); in the assay on M14, 36.2 µM (inactive); with COLO 205, 17.8 µM (inactive); with UACC-257, > 100 µM (inactive). Moreover, the GI50 with KM12 was 33.2 µM (inactive); in the assay on SK-MEL-2, > 85.1 µM (inactive); in the assay on MOLT-4 it was > 72.1 µM (inactive); with SF-539 it was > 100 µM (inactive); with ACHN, 20.8 µM (inactive); in the assay on NCI-H226, > 54.8 µM (inactive). In addition, the GI50 in the assay with A549 was > 100 µM (inactive); in the assay with HOP-92, > 100 µM (inactive); in the assay with RPMI-8226, > 100 µM (inactive); with Malme-3M, > 100 µM (inactive); with SF-268 it was > 100 µM (inactive); in the assay on OVCAR-5, > 53.2 µM (inactive). Also, the GI50 in the assay on OVCAR-8 was > 100 µM (inactive).
Take `COc1cc(/C=C2\CCc3cc(OC)c(OC)cc3C2=O)cc(OC)c1`: the GI50 is 5 µM (inactive) in the assay on SN12C; 6.28 µM (inactive) in the assay with U-251; 15.8 µM (inactive) in the assay with SK-MEL-28; 5.47 µM (inactive) in the assay with M14; 3.28 µM (inactive) in the assay on COLO 205; 19.7 µM (inactive) with UACC-257. Moreover, the GI50 with KM12 was 4.88 µM (inactive); in the assay with SK-MEL-2, 5.96 µM (inactive); in the assay with MOLT-4, 12.8 µM (inactive); with SF-539, 5.38 µM (inactive); in the assay on ACHN, 30.3 µM (inactive); in the assay with NCI-H226, 5.04 µM (inactive). The GI50 with A549 is 5.2 µM (inactive); in the assay with HOP-92 it was 24.3 µM (inactive); with RPMI-8226, 12.8 µM (inactive); in the assay on Malme-3M it was 10 µM (inactive); in the assay with SF-268, 41.2 µM (inactive); in the assay with OVCAR-5 it was 24.2 µM (inactive). In addition, the GI50 with OVCAR-8 was 9.02 µM (inactive).
For `COc1ccc(/C(=N/N=c2\[nH]c3ccccc3n2Cc2ccccc2)C(=O)O)cc1`, the GI50 in the assay on SN12C was 5.96 µM (inactive); in the assay with U-251 it was 11.1 µM (inactive); with SK-MEL-28, 23.8 µM (inactive); in the assay with M14 it was 14.5 µM (inactive); in the assay on COLO 205, 4.03 µM (inactive); with UACC-257 it was 29 µM (inactive). The GI50 in the assay with KM12 was 17.5 µM (inactive); in the assay on SK-MEL-2, 28.4 µM (inactive); in the assay on MOLT-4, 7.8 µM (inactive); in the assay on SF-539, 23.7 µM (inactive); with ACHN it was 22.6 µM (inactive); with NCI-H226, 20.2 µM (inactive). Also, the GI50 in the assay with A549 was 23 µM (inactive); with HOP-92 it was 11.7 µM (inactive); in the assay on RPMI-8226, 10 µM (inactive); in the assay with Malme-3M it was 17.6 µM (inactive); with SF-268, 7.5 µM (inactive); with OVCAR-5, 48.5 µM (inactive). Besides, in the assay with OVCAR-8, the GI50 is 21.8 µM (inactive).
As to `COc1ccc(NC(=S)N/N=C(\c2ccccc2)c2ccccn2)cc1`, the GI50 was 0.052 µM (active) in the assay on SN12C; < 0.0198 µM (active) with U-251; 2.56 µM (inactive) in the assay on SK-MEL-28; 0.0117 µM (active) with M14; < 0.01 µM (active) in the assay with COLO 205; < 0.01 µM (active) in the assay on UACC-257. The GI50 in the assay with KM12 was 0.0479 µM (active); with SK-MEL-2 it was 2.5 µM (inactive); in the assay on MOLT-4, < 0.01 µM (active); in the assay with SF-539, 0.348 µM (active); in the assay on ACHN, < 0.027 µM (active); in the assay on NCI-H226, 0.0753 µM (active). The GI50 is 0.128 µM (active) in the assay on A549; 0.224 µM (active) with HOP-92; < 0.01 µM (active) in the assay with RPMI-8226; 0.172 µM (active) with Malme-3M; 0.123 µM (active) in the assay on SF-268; 0.0241 µM (active) in the assay with OVCAR-5. The GI50 with OVCAR-8 was 0.0218 µM (active).
Turning to `COc1cnc2cc(C(=O)O)c3ccccc3c2c1`, the GI50 is > 100 µM (inactive) with SN12C; > 100 µM (inactive) with U-251; > 100 µM (inactive) in the assay with SK-MEL-28; 92.5 µM (inactive) with M14; > 100 µM (inactive) in the assay with COLO 205; > 100 µM (inactive) in the assay on UACC-257. The GI50 with KM12, with SK-MEL-2, in the assay with MOLT-4, in the assay on SF-539, with ACHN and in the assay on NCI-H226 was > 100 µM (inactive) in each case. Moreover, the GI50 in the assay with A549 was > 100 µM (inactive); in the assay on HOP-92, > 100 µM (inactive); with RPMI-8226 it was 28.1 µM (inactive); in the assay on Malme-3M it was > 100 µM (inactive); in the assay with SF-268, > 100 µM (inactive); with OVCAR-5, > 100 µM (inactive). Also, the GI50 with OVCAR-8 was > 100 µM (inactive).
`Nc1ccccc1OCCCOc1ccccc1N`: the GI50 with SN12C, with U-251, in the assay with SK-MEL-28, with M14, in the assay with COLO 205 and in the assay with UACC-257 was > 100 µM (inactive) throughout. Also, the GI50 with KM12, with SK-MEL-2, in the assay on MOLT-4, in the assay with SF-539, in the assay on ACHN and in the assay with NCI-H226 was > 100 µM (inactive) in each case. For the same molecule, the GI50 with A549, in the assay on HOP-92, in the assay with RPMI-8226, in the assay on Malme-3M, in the assay with SF-268 and with OVCAR-5 was > 100 µM (inactive) in each case. The GI50 in the assay with OVCAR-8 was > 100 µM (inactive).
